Source: the NIST ThermoML archive (doi:10.1016/j.jct.2015.02.020)

Legend:
[1] = 101.33 kPa, Liquid; for viscosity: Falling or rolling sphere viscometry; for speed of sound: Sing-around technique in a fixed-path interferometer; for mass density: Vibrating tube method
[2] = refractive index (Na D-line) (dimensionless); settings: 101.33 kPa, Liquid, Standard Abbe refractometry

CC[n+]1ccc(C)cc1.O=S(=O)([N-]S(=O)(=O)C(F)(F)F)C(F)(F)F
Settings | mass density, [1] [kg/m3] | refractive index, [2] | speed of sound, [1] [m/s] | viscosity, [1] [mPa·s]
293.15 K | 1491.6 | 1.44562 | 1275.3 | 40.01
298.15 K | 1486.67 | 1.44412 | 1263.8 | 32.83
303.15 K | 1481.76 | 1.4426 | 1252.4 | 27.39
308.15 K | 1476.87 | 1.44108 | 1241.2 | 23.17
313.15 K | 1472 | 1.43954 | 1230.1 | 19.8
318.15 K | 1467.15 | 1.43794 | 1219.2 | 17.17
323.15 K | 1462.32 | 1.43641 | 1208.3 | 15
328.15 K | 1457.52 | 1.43493 | 1197.3 | 13.26
333.15 K | 1452.73 | 1.43344 | 1187 | 11.82
338.15 K | 1447.96 | 1.43195 | 1176.5 | 10.57
343.15 K | 1443.21 | 1.43047 | 1166.1 | 9.51

CC[n+]1cccc(C)c1.O=S(=O)([N-]S(=O)(=O)C(F)(F)F)C(F)(F)F
Settings | mass density, [1] [kg/m3] | refractive index, [2] | speed of sound, [1] [m/s] | viscosity, [1] [mPa·s]
293.15 K | 1493.4 | 1.44503 | 1270.6 | 47.85
298.15 K | 1488.54 | 1.44355 | 1259.6 | 39.08
303.15 K | 1483.69 | 1.44204 | 1248.5 | 32.33
308.15 K | 1478.86 | 1.44056 | 1237.5 | 27.12
313.15 K | 1474.05 | 1.43904 | 1226.7 | 23.06
318.15 K | 1469.26 | 1.43751 | 1216 | 19.81
323.15 K | 1464.49 | 1.43599 | 1205.4 | 17.32
328.15 K | 1459.74 | 1.43451 | 1194.9 | 15.15
333.15 K | 1455.01 | 1.43304 | 1184.6 | 13.39
338.15 K | 1450.3 | 1.4316 | 1174.3 | 11.92
343.15 K | 1445.6 | 1.43014 | 1164.2 | 10.67
